Laboratory results reported in PubChem BioAssay AID2060888 (Molecular Pharmacology Branch, DTP, NCI, 2025).
pIC50: −log10 of the molar value.

Tested on: 695427-040-R-J1-PDC complex spheroid viability
Assay: Anticancer human tumor 695427-040-R-J1-PDC patient-derived colon adenocarcinoma cell line growth inhibition [RAS]
Settings: for pIC50: curve of first compound; for viability, T/C: stronger effect = lower value
How it was run: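 Tumour cells grown as complex spheroids with HUVEC endothelial cells and mesenchymal stem cells, treated with RAS pathway inhibitor combinations. Each agent spans half-log steps from near clinical Cmax, or 10 microM where Cmax is unknown.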
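Note: viability read after seven days of drug exposure.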
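Throughout, for viability, T/C: 100% = DMSO vehicle control viability.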

C=CC(=O)Nc1cc(Nc2nccc(-c3cn(C)c4ccccc34)n2)c(OC)cc1N(C)CCN(C)C + CCn1c(-c2cccnc2C(C)OC)c2c3cc(ccc31)N1CCOC(CC(NC(=O)C(C(C)C)N(C)C(=O)C3(F)CCN(C(=O)C#CC(C)(C)N(C)C)CC3)C(=O)N3CCCC(N3)C(=O)OCC(C)(C)C2)C1
pIC50 (second compound 0.000949 µM): 6.26 | pIC50 (second compound 0.003 µM): 6.24 | pIC50 (second compound 0.00949 µM): 6.34 | pIC50 (second compound 0.03 µM): 6.22 | pIC50 (second compound 0.0949 µM): 6.28 | pIC50 (second compound 0.3 µM): 6.54 | viability, T/C (second compound 0.000949 µM, first compound 0.00316 µM): 85.2% | viability, T/C (second compound 0.000949 µM, first compound 0.01 µM): 80.6% | viability, T/C (second compound 0.000949 µM, first compound 0.0316 µM): 73.5% | viability, T/C (second compound 0.000949 µM, first compound 0.1 µM): 100% | viability, T/C (second compound 0.000949 µM, first compound 0.316 µM): 60.9% | viability, T/C (second compound 0.000949 µM, first compound 1 µM): 38.5% | viability, T/C (second compound 0.003 µM, first compound 0.00316 µM): 91.3% | viability, T/C (second compound 0.003 µM, first compound 0.01 µM): 83.4% | viability, T/C (second compound 0.003 µM, first compound 0.0316 µM): 95.2% | viability, T/C (second compound 0.003 µM, first compound 0.1 µM): 114% | viability, T/C (second compound 0.003 µM, first compound 0.316 µM): 59.7% | viability, T/C (second compound 0.003 µM, first compound 1 µM): 40.8% | viability, T/C (second compound 0.00949 µM, first compound 0.00316 µM): 94.1% | viability, T/C (second compound 0.00949 µM, first compound 0.01 µM): 70.7% | viability, T/C (second compound 0.00949 µM, first compound 0.0316 µM): 87.6% | viability, T/C (second compound 0.00949 µM, first compound 0.1 µM): 82.2% | viability, T/C (second compound 0.00949 µM, first compound 0.316 µM): 56.3% | viability, T/C (second compound 0.00949 µM, first compound 1 µM): 36.1% | viability, T/C (second compound 0.03 µM, first compound 0.00316 µM): 80.9% | viability, T/C (second compound 0.03 µM, first compound 0.01 µM): 88% | viability, T/C (second compound 0.03 µM, first compound 0.0316 µM): 84.5% | viability, T/C (second compound 0.03 µM, first compound 0.1 µM): 73% | viability, T/C (second compound 0.03 µM, first compound 0.316 µM): 60.6% | viability, T/C (second compound 0.03 µM, first compound 1 µM): 42.1% | viability, T/C (second compound 0.0949 µM, first compound 0.00316 µM): 106% | viability, T/C (second compound 0.0949 µM, first compound 0.01 µM): 83.3% | viability, T/C (second compound 0.0949 µM, first compound 0.0316 µM): 84.5% | viability, T/C (second compound 0.0949 µM, first compound 0.1 µM): 80.2% | viability, T/C (second compound 0.0949 µM, first compound 0.316 µM): 67.7% | viability, T/C (second compound 0.0949 µM, first compound 1 µM): 31.5% | viability, T/C (second compound 0.3 µM, first compound 0.00316 µM): 74.5% | viability, T/C (second compound 0.3 µM, first compound 0.01 µM): 74.9% | viability, T/C (second compound 0.3 µM, first compound 0.0316 µM): 85.7% | viability, T/C (second compound 0.3 µM, first compound 0.1 µM): 52.8% | viability, T/C (second compound 0.3 µM, first compound 0.316 µM): 54.2% | viability, T/C (second compound 0.3 µM, first compound 1 µM): 32.3%

CC(C)n1nc(-c2ccc3oc(N)nc3c2)c2c(N)ncnc21 + C=CC(=O)N1CCN(c2nc(OCC3CCCN3C)nc3c(F)c(-c4nc(N)cc(C)c4C(F)(F)F)c(Cl)cc23)C(C)C1
pIC50 (second compound 0.00316 µM): < 7.00 | pIC50 (second compound 0.01 µM): < 7.00 | pIC50 (second compound 0.0316 µM): < 7.00 | pIC50 (second compound 0.1 µM): < 7.00 | pIC50 (second compound 0.316 µM): < 7.00 | pIC50 (second compound 1 µM): < 7.00 | viability, T/C (second compound 0.00316 µM, first compound 0.000316 µM): 98.5% | viability, T/C (second compound 0.00316 µM, first compound 0.001 µM): 96.5% | viability, T/C (second compound 0.00316 µM, first compound 0.00316 µM): 82.4% | viability, T/C (second compound 0.00316 µM, first compound 0.01 µM): 80.2% | viability, T/C (second compound 0.00316 µM, first compound 0.0316 µM): 72.2% | viability, T/C (second compound 0.00316 µM, first compound 0.1 µM): 61.8% | viability, T/C (second compound 0.01 µM, first compound 0.000316 µM): 106% | viability, T/C (second compound 0.01 µM, first compound 0.001 µM): 87.4% | viability, T/C (second compound 0.01 µM, first compound 0.00316 µM): 96.5% | viability, T/C (second compound 0.01 µM, first compound 0.01 µM): 79.9% | viability, T/C (second compound 0.01 µM, first compound 0.0316 µM): 70.9% | viability, T/C (second compound 0.01 µM, first compound 0.1 µM): 58.1% | viability, T/C (second compound 0.0316 µM, first compound 0.000316 µM): 101% | viability, T/C (second compound 0.0316 µM, first compound 0.001 µM): 89.8% | viability, T/C (second compound 0.0316 µM, first compound 0.00316 µM): 86% | viability, T/C (second compound 0.0316 µM, first compound 0.01 µM): 75% | viability, T/C (second compound 0.0316 µM, first compound 0.0316 µM): 76.5% | viability, T/C (second compound 0.0316 µM, first compound 0.1 µM): 65% | viability, T/C (second compound 0.1 µM, first compound 0.000316 µM): 103% | viability, T/C (second compound 0.1 µM, first compound 0.001 µM): 96.1% | viability, T/C (second compound 0.1 µM, first compound 0.00316 µM): 90% | viability, T/C (second compound 0.1 µM, first compound 0.01 µM): 77% | viability, T/C (second compound 0.1 µM, first compound 0.0316 µM): 70.4% | viability, T/C (second compound 0.1 µM, first compound 0.1 µM): 66.7% | viability, T/C (second compound 0.316 µM, first compound 0.000316 µM): 101% | viability, T/C (second compound 0.316 µM, first compound 0.001 µM): 88.6% | viability, T/C (second compound 0.316 µM, first compound 0.00316 µM): 88.8% | viability, T/C (second compound 0.316 µM, first compound 0.01 µM): 84% | viability, T/C (second compound 0.316 µM, first compound 0.0316 µM): 69.9% | viability, T/C (second compound 0.316 µM, first compound 0.1 µM): 61.6% | viability, T/C (second compound 1 µM, first compound 0.000316 µM): 98.4% | viability, T/C (second compound 1 µM, first compound 0.001 µM): 87.1% | viability, T/C (second compound 1 µM, first compound 0.00316 µM): 88.3% | viability, T/C (second compound 1 µM, first compound 0.01 µM): 78.3% | viability, T/C (second compound 1 µM, first compound 0.0316 µM): 72.6% | viability, T/C (second compound 1 µM, first compound 0.1 µM): 63.4%

CC(Nc1ccc2c(c1)OCCn1cc(N3C(=O)OCC3C(F)F)nc1-2)C(N)=O (stereo not drawn)
viability, T/C (compound 0.0316 µM): 89.9% [middle of 4 runs] | viability, T/C (compound 0.1 µM): 72.5% [middle of 4 runs] | viability, T/C (compound 0.316 µM): 73.7% [middle of 4 runs] | viability, T/C (compound 10 µM): 41.9% [middle of 4 runs]
